Laboratory results from patent US20250163038A1, “CBL-B MODULATORS AND USES THEREOF” (Nimbus Clio, Inc., priority 2021, published 2025).

Experiments:
[1] = target: Recombinant human Cbl-b (aa 36-427) (Homo sapiens, UniProt Q13191); experiment: Cbl-b Biochemical Assay (TR-FRET); details: read-out: TR-FRET hCbl-b IC50
[2] = target: T1, Recombinant human c-Cbl (aa 47-435) (Homo sapiens, UniProt P22681); experiment: c-Cbl Biochemical Assay (TR-FRET); details: hc-Cbl Biochemical Assay (TR-FRET); read-out: TR-FRET hcCbl IC50
T1 sequence (P22681 47-435): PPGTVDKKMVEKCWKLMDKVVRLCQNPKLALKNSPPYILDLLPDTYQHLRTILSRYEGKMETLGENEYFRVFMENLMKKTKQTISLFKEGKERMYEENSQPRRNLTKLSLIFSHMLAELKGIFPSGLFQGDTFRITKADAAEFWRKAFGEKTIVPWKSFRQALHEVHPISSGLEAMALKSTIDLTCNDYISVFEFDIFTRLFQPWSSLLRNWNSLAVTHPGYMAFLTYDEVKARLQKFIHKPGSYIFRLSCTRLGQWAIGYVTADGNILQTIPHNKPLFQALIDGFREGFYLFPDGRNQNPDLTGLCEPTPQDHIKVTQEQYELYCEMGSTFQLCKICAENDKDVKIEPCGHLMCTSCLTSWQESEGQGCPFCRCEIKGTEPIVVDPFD

[3] = tested on: Jurkat (clone E6-1) cells with NFAT luciferase reporter; experiment: Jurkat reporter assay (NFAT Luciferase); type: cell-based; details: Homo sapiens; Jurkat NFAT luciferase reporter cells, anti-CD3 stimulation, 6 hr; read-out: Jurkat NFAT EC50

Sequence of Recombinant human Cbl-b (aa 36-427) (Q13191 36-427): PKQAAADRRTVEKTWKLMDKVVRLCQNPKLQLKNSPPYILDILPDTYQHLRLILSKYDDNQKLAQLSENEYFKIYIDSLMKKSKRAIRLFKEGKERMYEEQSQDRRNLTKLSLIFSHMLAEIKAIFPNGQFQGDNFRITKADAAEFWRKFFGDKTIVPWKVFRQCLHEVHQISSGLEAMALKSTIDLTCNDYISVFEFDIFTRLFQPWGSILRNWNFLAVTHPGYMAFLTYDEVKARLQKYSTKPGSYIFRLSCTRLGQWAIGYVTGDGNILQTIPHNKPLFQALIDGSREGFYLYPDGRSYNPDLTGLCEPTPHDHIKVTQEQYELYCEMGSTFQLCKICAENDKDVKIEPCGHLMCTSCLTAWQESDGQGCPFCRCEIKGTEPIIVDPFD

CN(Cc1cc(F)c2oc(-c3cc(-c4ccc(F)cc4-c4nncn4C)cc(C4CC4)n3)nc2c1)[C@@H]1CCC[C@@H]1O [AFK-1, (1S,2R)-2-{[(2-{6-Cyclopropyl-4-[4-fluoro-2-(4-methyl-1,2,4-triazol-3-yl)phenyl]pyridin-2-yl}-7-fluoro-1,3-benzoxazol-5-yl)methyl](methyl)amino}cyclopentan-1-ol]
IC50 [1]: < 200 nM | IC50 [2]: < 200 nM | EC50 [3]: 200 to 1000 nM

C[C@H]1CCCN(Cc2cc(F)c3oc(-c4cc(-c5ccc(C#N)cc5-c5nncn5C)cc(C5CC5)n4)nc3c2)C1 [AGI-1, 4-[2-Cyclopropyl-6-(7-fluoro-5-{[(3S)-3-methylpiperidin-1-yl]methyl}-1,3-benzoxazol-2-yl)pyridin-4-yl]-3-(4-methyl-1,2,4-triazol-3-yl)benzonitrile]
IC50 [1]: < 200 nM | IC50 [2]: < 200 nM | EC50 [3]: < 200 nM

CN(C)CC(=O)NCc1cc(C(F)(F)F)c2oc(-c3cccc(-c4ccc(F)cc4-c4nncn4C)c3)nc2c1 [HC-2, 2-(Dimethylamino)-N-((2-(4′-fluoro-2′-(4-methyl-4H-1,2,4-triazol-3-yl)-[1,1′-biphenyl]-3-yl)-7-(trifluoromethyl)benzo[d]oxazol-5-yl)methyl)acetamide]
IC50 [1]: < 200 nM | IC50 [2]: 200 to 1000 nM | EC50 [3]: 1000 to 10000 nM

C[C@H]1CCCN(Cc2cc(C(F)(F)F)c3[nH]c(-c4cc(-c5ccc(F)cc5-c5nncn5C)cc(C5CC5)n4)nc3c2)C1 [AAZ-10, (S)-2-(6-Cyclopropyl-4-(4-fluoro-2-(4-methyl-4H-1,2,4-triazol-3-yl)phenyl)pyridin-2-yl)-5-((3-methylpiperidin-1-yl)methyl)-7-(trifluoromethyl)-1H-benzo[d]imidazole]
IC50 [1]: < 200 nM | IC50 [2]: 1000 to 10000 nM | EC50 [3]: 200 to 1000 nM

Cn1cnnc1-c1cc(F)ccc1-c1cccc(-c2nc3cc(CN[C@@H]4CCC[C@@H]4O)cc(C(F)F)c3o2)c1 [EY-2, (1S,2R)-2-(((7-(Difluoromethyl)-2-(4′-fluoro-2′-(4-methyl-4H-1,2,4-triazol-3-yl)-[1,1′-biphenyl]-3-yl)benzo[d]oxazol-5-yl)methyl)amino)cyclopentan-1-ol]
IC50 [1]: < 200 nM | IC50 [2]: < 200 nM | EC50 [3]: < 200 nM

Cn1cnnc1-c1cc(F)ccc1-c1cc(-c2nc3cc(CN4CC(F)C4)cc(F)c3o2)nc(C2CC2)c1 [AFP-3, 2-{6-Cyclopropyl-4-[4-fluoro-2-(4-methyl-1,2,4-triazol-3-yl)phenyl]pyridin-2-yl}-7-fluoro-5-[(3-fluoroazetidin-1-yl)methyl]-1,3-benzoxazole]
IC50 [1]: 1000 to 10000 nM | IC50 [2]: 200 to 1000 nM | EC50 [3]: 1000 to 10000 nM

COC[C@H](C)NCc1cc(C(F)(F)F)c2oc(-c3cccc(-c4ccc(F)cc4-c4nncn4C)c3)nc2c1 [EJ-2, (S)—N-((2-(4′-Fluoro-2′-(4-methyl-4H-1,2,4-triazol-3-yl)-[1,1′-biphenyl]-3-yl)-7-(trifluoromethyl)benzo[d]oxazol-5-yl)methyl)-1-methoxypropan-2-amine]
IC50 [1]: < 200 nM | IC50 [2]: < 200 nM | EC50 [3]: < 200 nM

Cc1cc(CNCC2CCC2)cc2nc(-c3cccc(-c4ccc(F)cc4-c4nncn4C)c3)oc12 [GU-1, 1-Cyclobutyl-N-((2-(4′-fluoro-2′-(4-methyl-4H-1,2,4-triazol-3-yl)-[1,1′-biphenyl]-3-yl)-7-methylbenzo[d]oxazol-5-yl)methyl)methanamine]
IC50 [1]: < 200 nM | IC50 [2]: < 200 nM | EC50 [3]: < 200 nM

Cn1cnnc1-c1cc(F)ccc1-c1cccc(-c2nc3cc(CO)cc(C(F)(F)F)c3[nH]2)c1 [BJ-1, (2-(4′-Fluoro-2′-(4-methyl-4H-1,2,4-triazol-3-yl)-[1,1′-biphenyl]-3-yl)-7-(trifluoromethyl)-1H-benzo[d]imidazol-5-yl)methanol]
IC50 [1]: < 200 nM | IC50 [2]: 1000 to 10000 nM | EC50 [3]: 1000 to 10000 nM

Cc1c(F)c(CNCC(C)(C)O)cc2nc(-c3cccc(-c4ccc(F)cc4-c4nncn4C)c3)oc12 [AHK-4, 1-[({6-fluoro-2-[4′-fluoro-2′-(4-methyl-1,2,4-triazol-3-yl)-[1,1′-biphenyl]-3-yl]-7-methyl-1,3-benzoxazol-5-yl}methyl)amino]-2-methylpropan-2-ol]
IC50 [1]: < 200 nM | IC50 [2]: < 200 nM | EC50 [3]: < 200 nM

Cn1cnnc1-c1cc(F)ccc1-c1cccc(-c2nc3cc(CNC4CC5(CCC5)C4)cc(C(F)(F)F)c3o2)c1 [FM-2, N-((2-(4′-Fluoro-2′-(4-methyl-4H-1,2,4-triazol-3-yl)-[1,1′-biphenyl]-3-yl)-7-(trifluoromethyl)benzo[d]oxazol-5-yl)methyl)spiro[3.3]heptan-2-amine]
IC50 [1]: < 200 nM | IC50 [2]: < 200 nM | EC50 [3]: < 200 nM

Cn1cnnc1-c1cc(F)ccc1-c1cc(-c2nc3cc(CNCC4CCC4)cc(F)c3o2)cc(C2CC2)c1 [JO-1, 1-Cyclobutyl-N-((2-(5-cyclopropyl-4′-fluoro-2′-(4-methyl-4H-1,2,4-triazol-3-yl)-[1,1′-biphenyl]-3-yl)-7-fluorobenzo[d]oxazol-5-yl)methyl)methanamine]
IC50 [1]: < 200 nM | IC50 [2]: < 200 nM | EC50 [3]: < 200 nM

COCCNCc1cc2nc(-c3cc(-c4ccc(F)cc4-c4nncn4C)cc(C4CC4)n3)oc2c(F)c1F [AGB-1, [(2-{6-Cyclopropyl-4-[4-fluoro-2-(4-methyl-1,2,4-triazol-3-yl)phenyl]pyridin-2-yl}-6,7-difluoro-1,3-benzoxazol-5-yl)methyl](2-methoxyethyl)amine]
IC50 [1]: < 200 nM | IC50 [2]: < 200 nM | EC50 [3]: < 200 nM

Cn1cnnc1-c1cc(F)ccc1-c1cccc(-c2nc3cc(CN[C@]4(C)CCC[C@@H]4O)cc(C(F)(F)F)c3o2)c1 (racemic) [IM-8, rac-(1S,2R)-2-(((2-(4′-fluoro-2′-(4-methyl-4H-1,2,4-triazol-3-yl)-[1,1′-biphenyl]-3-yl)-7-(trifluoromethyl)benzo[d]oxazol-5-yl)methyl)amino)-2-methylcyclopentan-1-ol]
IC50 [1]: < 200 nM | IC50 [2]: < 200 nM | EC50 [3]: < 200 nM

COCC1(CNCc2cc(C(F)(F)F)c3oc(-c4cccc(-c5ccc(F)cc5-c5nncn5C)c4)nc3c2)CCCC1 [FC-2, 1-(2-(4′-Fluoro-2′-(4-methyl-4H-1,2,4-triazol-3-yl)-[1,1′-biphenyl]-3-yl)-7-(trifluoromethyl)benzo[d]oxazol-5-yl)-N-((1-(methoxymethyl)cyclopentyl)methyl)methanamine]
IC50 [1]: < 200 nM | IC50 [2]: < 200 nM | EC50 [3]: 200 to 1000 nM

CN(Cc1cc(C(F)(F)F)c2oc(-c3cccc(-c4ccc(F)cc4-c4nncn4C)c3)nc2c1)CC1CCC1 [IE-1, 1-Cyclobutyl-N-((2-(4′-fluoro-2′-(4-methyl-4H-1,2,4-triazol-3-yl)-[1,1′-biphenyl]-3-yl)-7-(trifluoromethyl)benzo[d]oxazol-5-yl)methyl)-N-methylmethanamine]
IC50 [1]: < 200 nM | IC50 [2]: 200 to 1000 nM | EC50 [3]: 200 to 1000 nM

C[C@H](O)CNCc1cc(F)c2oc(-c3cccc(-c4ccc(F)cc4-c4nncn4C)c3)nc2c1 [JP-1, (S)-1-(((7-Fluoro-2-(4′-fluoro-2′-(4-methyl-4H-1,2,4-triazol-3-yl)-[1,1′-biphenyl]-3-yl)benzo[d]oxazol-5-yl)methyl)amino)propan-2-ol]
IC50 [1]: < 200 nM | IC50 [2]: < 200 nM | EC50 [3]: < 200 nM

Cn1cnnc1-c1cc(F)ccc1-c1cccc(-c2nc3cc(CNCC4(O)CCCC4)cc(C(F)(F)F)c3[nH]2)c1 [CJ-1, 1-((((2-(4′-Fluoro-2′-(4-methyl-4H-1,2,4-triazol-3-yl)-[1,1′-biphenyl]-3-yl)-7-(trifluoromethyl)-1H-benzo[d]imidazol-5-yl)methyl)amino)methyl)cyclopentan-1-ol]
IC50 [1]: < 200 nM | IC50 [2]: < 200 nM | EC50 [3]: < 200 nM

Cn1cnnc1-c1cc(F)ccc1-c1cccc(-c2nc3cc(CNCC4(O)CCC4)c(F)c(F)c3o2)c1 [IW-1, 1-((((6,7-Difluoro-2-(4′-fluoro-2′-(4-methyl-4H-1,2,4-triazol-3-yl)-[1,1′-biphenyl]-3-yl)benzo[d]oxazol-5-yl)methyl)amino)methyl)cyclobutan-1-ol]
IC50 [1]: < 200 nM | IC50 [2]: < 200 nM | EC50 [3]: < 200 nM

Cn1cnnc1-c1ccccc1-c1cccc(-c2nc3cc(CN[C@H]4CCC[C@@H]4O)cc(C(F)(F)F)c3o2)c1 [Example P-6, (1S,2S)-2-(((2-(2′-(4-Methyl-4H-1,2,4-triazol-3-yl)-[1,1′-biphenyl]-3-yl)-7-(trifluoromethyl)benzo[d]oxazol-5-yl)methyl)amino)cyclopentan-1-ol]
IC50 [1]: < 200 nM | IC50 [2]: 1000 to 10000 nM | EC50 [3]: 1000 to 10000 nM

Cn1cnnc1-c1cc(F)ccc1-c1cc(-c2nc3cc(CNCC(C)(C)O)ccc3o2)nc(C2CC2)c1 [AFD-1, 1-{[(2-{6-Cyclopropyl-4-[4-fluoro-2-(4-methyl-1,2,4-triazol-3-yl)phenyl]pyridin-2-yl}-1,3-benzoxazol-5-yl)methyl]amino}-2-methylpropan-2-ol]
IC50 [1]: < 200 nM | IC50 [2]: < 200 nM | EC50 [3]: < 200 nM

Cc1cc(CN[C@@H]2CCC[C@@H]2O)cc2nc(-c3cc(-c4ccc(F)cc4-c4nncn4C)cc(C4CC4)n3)oc12 [AEU-2, (1S,2R)-2-{[(2-{6-Cyclopropyl-4-[4-fluoro-2-(4-methyl-1,2,4-triazol-3-yl)phenyl]pyridin-2-yl}-7-methyl-1,3-benzoxazol-5-yl)methyl]amino}cyclopentan-1-ol]
IC50 [1]: < 200 nM | IC50 [2]: < 200 nM | EC50 [3]: < 200 nM
